Consider 50 compounds from patent US20200062696A1, “COMPOSITIONS AND METHODS FOR INHIBITING RETICULON 4” (THE REGENTS OF THE UNIVERSITY OF CALIFORNIA, priority 2017, published 2020).

Assay [1] concerns SW620 colorectal cancer cells. The assay is described as follows: Serum-free cell survival of SW620 cells (Hoescht staining). The format is cell-based. Conditions: Homo sapiens, SW-620, cysteine-reactive fragment 50 μM, 48 h, vs DMSO, average of n = 3/group, read-out: SW620 survival Ave. As to the method:
(§1) Cell Culture. SW620 cells were purchased from ATCC. SW620 cells were grown in L-15 media with 10% fetal bovine serum (FBS) in ambient CO2. U2OS cells were grown in DMEM media supplemented with 10% FBS at 37° C. with 5% CO2.
(§2) Survival and Proliferation Assays. Cells were plated the evening before the experiment, and allowed to adhere overnight. For serum-free cell survival assays, cells were plated in media not containing FBS. For cell proliferation assays, cells were plated in regular media. For the chemical genetics screen, cells were treated with either DMSO or the cysteine-reactive fragment for 48 h and cell viability was assessed by Hoescht stain using our previously described methods

In assay [2] the test system is SW620 colorectal cancer cells. The assay can be described thus: Cell proliferation of SW620 cells (Hoescht staining). It is filed as cell-based. Conditions: Homo sapiens, SW-620, cysteine-reactive fragment 50 μM, 48 h, vs DMSO, average of n = 3/group, read-out: SW620 proliferation Ave. As for the experimental part: as §1, §2

SMILES strings stand for the structures.

Regarding `C=CC(=O)NCc1ccccc1` [DKM 2-31, N-benzylacrylamide], the viability at 50 µM in assay [1] amounted to 89%. Further, the activity at 50 µM in assay [2] was 116%.
In the case of `C=CC(=O)NC(C)CCc1ccccc1` (stereo not shown) [DKM 2-32, N-(4-phenylbutan-2-yl)acrylamide], in assay [1], the viability at 50 µM was 91%. For the same compound, the activity at 50 µM in assay [2] amounted to 114%.
On to `C=CC(=O)NCc1ccc(OC)cc1` [DKM 2-33, N-(4-methoxybenzyl)acrylamide], for which the viability at 50 µM in assay [1] came out at 92%. Further, the activity at 50 µM in assay [2] was determined as 115%.
In the case of `C=CC(=O)NCc1ccc(F)cc1` [DKM 2-34, N-(4-fluorobenzyl)acrylamide], the viability at 50 µM in assay [1] amounted to 78%. In assay [2], the activity at 50 µM was 105%.
Take `C=CC(=O)NCc1ccc(-c2ccccc2)cc1` [DKM 2-37, N-([1,1′-biphenyl]-4-ylmethyl)acrylamide]: the viability at 50 µM in assay [1] was 57%. In addition, in assay [2], the activity at 50 µM was found to be 73%.
For `C=CC(=O)N1CCN(C(=O)OCC)CC1` [DKM 2-39, Ethyl 4-acryloylpiperazine-1-carboxylate] the same measures were 93% and 110%.
The like results for `C=CC(=O)Nc1cc(F)ccc1F` [DKM 2-40, N-(2,5-difluorophenyl)acrylamide] were, in that order, 36% and 98%.
As to `C=CC(=O)NCCc1ccccc1` [DKM 2-42, N-phenethylacrylamide], the viability at 50 µM in assay [1] is 104%. Further, the activity at 50 µM in assay [2] is 137%.
For `C=CC(=O)NCc1ccc(Br)cc1` [DKM 2-43, N-(4-bromobenzyl)acrylamide] the same measures were 84% and 128%.
Turning to `C=CC(=O)NCc1cc(C)cc(C)c1` [DKM 2-47, N-(3,5-dimethylbenzyl)acrylamide], the viability at 50 µM in assay [1] was determined as 78%. Further, the activity at 50 µM in assay [2] amounted to 112%.
With `C=CC(=O)N1CCCC1` [DKM 2-48, 1-(pyrrolidin-1-yl)prop-2-en-1-one], in assay [1], the viability at 50 µM was found to be 90%. Besides, the activity at 50 µM in assay [2] came to 85%.
As to `C=CC(=O)N1CCOCC1` [DKM 2-49, 1-morpholinoprop-2-en-1-one], the viability at 50 µM in assay [1] stood at 80%. For the same compound, in assay [2], the activity at 50 µM was determined as 109%.
On to `C=CC(=O)NCCCc1ccccc1` [DKM 2-50, N-(3-phenylpropyl)acrylamide], for which the viability at 50 µM in assay [1] worked out at 89%. Besides, the activity at 50 µM in assay [2] came out at 130%.
Take `CCOC(=O)N1CCN(C(=O)CCl)CC1` [DKM 2-52, Ethyl 4-(2-chloroacetyl)piperazine-1-carboxylate]: the viability at 50 µM in assay [1] worked out at 92%. In addition, the activity at 50 µM in assay [2] is 53%.
The like results for `C=CC(=O)NCCOc1ccccc1OC` [DKM 2-58, N-(2-(2-methoxyphenoxy)ethyl)acrylamide] were, in that order, 98% and 116%.
With `C=CC(=O)NCc1ccccc1-c1ccccc1` [DKM 2-59, N-([1,1′-biphenyl]-2-ylmethyl)acrylamide], the viability at 50 µM in assay [1] came to 66%. Further, the activity at 50 µM in assay [2] came out at 74%.
In the case of `C=CC(=O)NCc1ccccc1Cl` [DKM 2-60, N-(2-chlorobenzyl)acrylamide], the viability at 50 µM in assay [1] amounted to 108%. Besides, in assay [2], the activity at 50 µM came to 100%.
The like results for `C=CC(=O)NCc1ccccc1[N+](=O)[O-]` [DKM 2-62, N-(2-nitrobenzyl)acrylamide] were, in that order, 115% and 95%.
Turning to `O=C(CCl)NCc1ccccc1` [DKM 2-67, N-benzyl-2-chloroacetamide], the viability at 50 µM in assay [1] was found to be 87%. Also, in assay [2], the activity at 50 µM was determined as 73%.
The like results for `O=C(CCl)N1CCCC1` [DKM 2-71, 2-Chloro-1-(pyrrolidin-1-yl)ethan-1-one] were, in that order, 81% and 41%.
In the case of `CCCCCCCCCCNC(=O)CCl` [DKM 2-72, 2-Chloro-N-decylacetamide], the viability at 50 µM in assay [1] was 96%. Besides, in assay [2], the activity at 50 µM turned out to be 100%.
For `CC(CCc1ccccc1)NC(=O)CCl` (stereo not shown) [DKM 2-76, 2-Chloro-N-(4-phenylbutan-2-yl)acetamide] the same measures were 44% and 50%.
For `O=C(CCl)NCc1ccc(F)cc1` [DKM 2-80, 2-chloro-N-(4-fluorobenzyl)acetamide] the same measures were 47% and 48%.
For `COc1ccc(CNC(=O)CCl)cc1` [DKM 2-83, 2-chloro-N-(4-methoxybenzyl)acetamide], the viability at 50 µM in assay [1] came to 66%. Further, in assay [2], the activity at 50 µM stood at 48%.
For `C=CC(=O)Nc1cccc2c1CCC2` [DKM 2-84, N-(2,3-dihydro-1H-inden-4-yl)acrylamide] the same measures were 74% and 84%.
Consider `C=CC(=O)Nc1ccc2c(c1)OCO2` [DKM 2-86, N-(benzo[d][1,3]dioxol-5-yl)acrylamide], for which the viability at 50 µM in assay [1] worked out at 109%. The activity at 50 µM in assay [2] was 102%.
For `O=C(CCl)Nc1cccc2c1CCC2` [DKM 2-91, 2-chloro-N-(2,3-dihydro-1H-inden-4-yl)acetamide] the same measures were 38% and 59%.
For the compound `COc1ccc(CNC(=O)CCl)cc1OC` [DKM 2-93, 2-chloro-N-(3,4-dimethoxybenzyl)acetamide], in assay [1], the viability at 50 µM amounted to 74%. In addition, in assay [2], the activity at 50 µM worked out at 57%.
For `O=C(CCl)NCc1ccccc1Cl` [DKM 2-94, 2-Chloro-N-(2-chlorobenzyl)acetamide] the same measures were 43% and 32%.
The like results for `C=CC(=O)N(C)Cc1ccccc1` [DKM 2-95, N-benzyl-N-methylacrylamide] were, in that order, 52% and 85%.
`C=CC(=O)N1CCC(c2ccccc2)CC1` [DKM 2-97, 1-(4-phenylpiperidin-1-yl)prop-2-en-1-one]: the viability at 50 µM in assay [1] came out at 106%. Further, the activity at 50 µM in assay [2] is 96%.
In the case of `C=CC(=O)Nc1ccc(-c2ccc(C#N)cc2)cc1` [DKM 2-98, N-(4′-cyano-[1,1′-biphenyl]-4-yl)acrylamide], the viability at 50 µM in assay [1] came out at 52%. Also, the activity at 50 µM in assay [2] is 42%.
Consider `C=CC(=O)NCCN1CCOCC1` [DKM 2-100, N-(2-morpholinoethyl)acrylamide], for which, in assay [1], the viability at 50 µM is 138%. Further, in assay [2], the activity at 50 µM is 100%.
With `C=CC(=O)N1CCc2ccccc21` [DKM 2-101, 1-(indolin-1-yl)prop-2-en-1-one], the viability at 50 µM in assay [1] amounted to 39%. For the same compound, in assay [2], the activity at 50 µM came to 96%.
The like results for `C=CC(=O)NCCCC` [DKM 2-102, N-butylacrylamide] were, in that order, 124% and 133%.
Turning to `C=CC(=O)NCCCOC` [DKM 2-103, N-(3-methoxypropyl)acrylamide], the viability at 50 µM in assay [1] turned out to be 135%. Besides, the activity at 50 µM in assay [2] stood at 112%.
Consider `C=CC(=O)NC1CCCCC1` [DKM 2-106, N-cyclohexylacrylamide], for which, in assay [1], the viability at 50 µM is 144%. The activity at 50 µM in assay [2] is 100%.
The like results for `C=CC(=O)Nc1ccc(Cl)cc1` [DKM 2-107, N-(4-chlorophenyl)acrylamide] were, in that order, 86% and 99%.
Turning to `C=CC(=O)NC1CCCC1` [DKM 2-108, N-cyclopentylacrylamide], the viability at 50 µM in assay [1] is 61%. Moreover, the activity at 50 µM in assay [2] was found to be 95%.
For `C=CC(=O)N1CCC(OC)CC1` [DKM 2-109, 1-(4-methoxypiperidin-1-yl)prop-2-en-1-one], the viability at 50 µM in assay [1] came to 140%. For the same compound, the activity at 50 µM in assay [2] came out at 96%.
The like results for `C=CC(=O)NCc1ccc(OC)c(OC)c1` [DKM 2-110, N-(3,4-dimethoxybenzyl)acrylamide] were, in that order, 112% and 95%.
For `C=CC(=O)N1CCN(C(=O)OC(C)(C)C)CC1` [DKM 2-111, tert-butyl 4-acryloylpiperazine-1-carboxylate] the same measures were 133% and 106%.
Regarding `C=CC(=O)NCCOc1ccccc1` [DKM 2-113, N-(2-phenoxyethyl)acrylamide], the viability at 50 µM in assay [1] was found to be 75%. In addition, the activity at 50 µM in assay [2] is 147%.
Turning to `C=CC(=O)N(C1CCCCC1)C1CCCCC1` [DKM 2-114, N,N-dicyclohexylacrylamide], the viability at 50 µM in assay [1] worked out at 76%. Further, the activity at 50 µM in assay [2] came to 111%.
On to `C=CC(=O)NCc1ccc(C(F)(F)F)cc1` [DKM 2-116, N-(4-(trifluoromethyl)benzyl)acrylamide], for which the viability at 50 µM in assay [1] was 123%. Moreover, the activity at 50 µM in assay [2] was determined as 90%.
For `C=CC(=O)N1CCC(C(=O)OCC)CC1` [DKM 2-120, Ethyl 1-acryloylpiperidine-4-carboxylate] the same measures were 102% and 96%.
For `C=CC(=O)NC(c1ccccc1)c1ccccc1` [DKM 3-4, N-benzhydrylacrylamide] the same measures were 122% and 120%.
For the compound `C=CC(=O)N1CCN(c2ccccc2)CC1` [DKM 3-5, 1-(4-phenylpiperazin-1-yl)prop-2-en-1-one], the viability at 50 µM in assay [1] amounted to 59%. Besides, in assay [2], the activity at 50 µM turned out to be 82%.
The like results for `C=CC(=O)Nc1ccc(C(C)=O)cc1` [DKM 3-7, N-(4-acetylphenyl)acrylamide] were, in that order, 51% and 100%.
Take `C=CC(=O)N1CCC(C)CC1` [DKM 3-8, 1-(4-methylpiperidin-1-yl)prop-2-en-1-one]: in assay [1], the viability at 50 µM was determined as 152%. The activity at 50 µM in assay [2] was 105%.
